According to patent US20050143427A1, “[B]-fused bicyclic proline derivatives and their use for treating arthritic conditions” (priority 2003, published 2005):
Where two headings read alike, the source gives them in different places.

Tests used:
[1] = Drug plasma half-life assay (DPH-LA) and bioavailability in rat; type: in vivo; conditions: male
Experimental: Three fasted male Sprague-Dawley rats are dosed by intravenous infusion via cannula over 5 minutes of 3 mg/kg of invention compound in 1.0 mL saline solution, and the cannulas were each rinsed with 1.0 mL saline solution immediately following infusion. Animals are fed at 4 hours post dose. Blood samples are collected by conventional means in tubes containing ethylenediaminetetraacetic acid (“EDTA”) at Times 0 (predose), 0.083 (end of infusion), 0.25, 0.5, 1, 2, 4, 6, 8, 12, and 24 hours post dose. Plasma is separated from the blood and stored frozen until analyzed by conventional high performance liquid chromatography, whereby 5.0 ng/mL was the lower limit of quantitation.
Three fasted male Wistar rats are dosed by oral gavage with optionally 5 mg/kg, 30 mg/kg, or 300 mg/kg of invention compound. Animals are fed at 4 hours post dose. Blood samples are collected by conventional means in tubes containing EDTA at Times 0 (predose), 0.5, 1, 2, 4, 6, 8, 12, and 24 hours post dose. Plasma is separated from the blood and stored frozen until analyzed.
Mean plasma half-life was determined by thawing and assaying the plasma samples using high performance liquid chromatography by conventional means. A concentration of test compound of 5.0 ng/mL was the lower limit of quantitation.
Plasma half-life was calculated as the time in hours by conventional means. Drug quantitation is done by comparison to standard samples containing known amounts of test compound.
Mean bioavailability for test compound was determined by calculating area under the concentration-time curve (“AUC”) Extrap using conventional methods.

[2] = target: pig alpha-2-delta receptor 1 (A2DR1) (Sus scrofa, UniProt A0A287BIN3); assay: [3H]Gabapentin scintillant proximity A2DR1 binding assay (A2DR1 SPA, Biological Method 5); conditions: displacement of [3H]-gabapentin
Sequence of pig alpha-2-delta receptor 1 (A2DR1) (A0A287BIN3 1-1109): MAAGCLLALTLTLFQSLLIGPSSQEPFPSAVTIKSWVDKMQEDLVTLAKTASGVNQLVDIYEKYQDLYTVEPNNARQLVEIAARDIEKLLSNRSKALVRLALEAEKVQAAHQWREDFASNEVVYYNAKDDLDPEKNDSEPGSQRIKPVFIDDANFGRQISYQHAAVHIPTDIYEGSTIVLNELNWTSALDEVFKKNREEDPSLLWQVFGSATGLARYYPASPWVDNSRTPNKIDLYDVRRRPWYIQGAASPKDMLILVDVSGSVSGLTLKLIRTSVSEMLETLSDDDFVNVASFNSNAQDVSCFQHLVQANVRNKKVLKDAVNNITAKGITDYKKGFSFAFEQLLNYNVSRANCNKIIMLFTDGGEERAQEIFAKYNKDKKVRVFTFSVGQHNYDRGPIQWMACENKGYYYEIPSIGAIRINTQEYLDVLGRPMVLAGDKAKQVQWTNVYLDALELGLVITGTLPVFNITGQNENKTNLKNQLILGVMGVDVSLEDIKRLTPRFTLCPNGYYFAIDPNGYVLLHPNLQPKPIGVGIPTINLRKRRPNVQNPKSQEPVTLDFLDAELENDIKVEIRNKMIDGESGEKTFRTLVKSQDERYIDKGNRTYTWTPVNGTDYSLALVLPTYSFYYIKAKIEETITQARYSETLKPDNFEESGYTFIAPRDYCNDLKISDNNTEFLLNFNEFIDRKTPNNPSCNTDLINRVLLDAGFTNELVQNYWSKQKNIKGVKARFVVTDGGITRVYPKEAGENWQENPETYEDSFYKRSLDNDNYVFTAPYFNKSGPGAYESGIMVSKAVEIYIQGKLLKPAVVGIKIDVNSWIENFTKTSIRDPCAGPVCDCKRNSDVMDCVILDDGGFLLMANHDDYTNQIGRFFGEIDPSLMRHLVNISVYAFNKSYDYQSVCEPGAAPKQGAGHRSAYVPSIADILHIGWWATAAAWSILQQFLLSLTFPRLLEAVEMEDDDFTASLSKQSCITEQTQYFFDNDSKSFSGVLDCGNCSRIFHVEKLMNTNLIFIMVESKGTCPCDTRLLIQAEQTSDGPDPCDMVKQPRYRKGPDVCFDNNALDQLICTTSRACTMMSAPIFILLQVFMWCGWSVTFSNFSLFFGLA
Experimental: (§1) Recombinant HEK 293 cells expressing pig A2DR1 and A2DR2 subunits were grown under normal cell culture conditions (RPMI-1640 media with 10% FBS, 200 μg G418, and 1% penicillin/streptomycin 1t 37° C. with 5% CO2) until reaching confluency in T-75 flasks, at which time they were harvested. The harvested cells were suspended in ice-cold 5 mM Tris/5 mM ethylenediaminetetraacetic acid (“EDTA”) buffer, pH 7.4 (“TE buffer”) containing phenylmethylsulfonyl fluoride (“PMSF”) (0.1 mM) and Roche Complete Protease Inhibitor Cocktail, and allowed to sit on ice for 30 minutes. The cells were broken by sonication using 20 bursts, 40-50 cycles, and then centrifuged at 3000×g for 10 minutes. The resulting supernatant was transferred to a new tube and centrifuged at 50,000×g for 30 minutes. The resulting pellet was resuspended in 10 mM HEPES buffer, pH 7.4, homogenized, and stored at—80° C. The A2DR1 or A2DR2 membrane protein concentration was determined by the Pierce BCA method using bovine serum albumin (“BSA”) as the standard.
(§2) The [^3H]gabapentin SPA binding assay was performed in Costar 3632 96-well, clear bottom assay plates using Wheatgerm agglutinin beads (Amersham Pharmacia Biotech). Pig A2DR1 or A2DR2 membranes (10-20 μg protein per well) prepared above in Step (1) and SPA beads (0.5 mg per well) were mixed with 30 nM [^3H]gabapentin (52 Ci/mmol; Amersham Pharmacia Biotech) in 10 mM HEPES/10 mM MgSO4 assay buffer, pH 7.4 using KOH. The final well volume was 200 μL and non-specific binding was determined in the presence of 10 μM unlabeled pregabalin. The final mixture containing A2DR1 or A2DR2 membrane protein incubated with SPA beads, test compounds, and [^3H]gabapentin was incubated at room temperature for 15-24 hours, and the plates were then counted on a Wallace Trilux 1450 Microbeta scintillation counter. Step (3): Determination of IC50 values
(§3) Curve fitting and IC50 values were calculated using a four-parameter, non-linear regression equation from GraphPad Prism 3.0 software, while Ki values were determined using the equation of Chang and Prussoff.

[3] = system: MIA Rat (monosodium iodoacetate-induced osteoarthritis, right knee joint); assay: Monosodium iodoacetate-induced osteoarthritis in rat model of joint cartilage damage (MIA Rat); type: in vivo; conditions: for % I @ 30 mg/kg BID (%) (± SEM): inhibition of loss of hind limb joint function in MIA at Day 14: 30 mg/kg BID oral
Source text: One end result of the induction of osteoarthritis in this model, as determined by histologic analysis, is the development of an osteoarthritic condition within the affected joint, as characterized by the loss of Toluidine blue staining and formation of osteophytes. Associated with the histologic changes is a concentration-dependent degradation of joint cartilage, as evidenced by affects on hind-paw weight distribution of the limb containing the affected joint, the presence of increased amounts of proteoglycan or hydroxyproline in the joint upon biochemical analysis, or histopathological analysis of the osteoarthritic lesions.
The invention compounds typically are not effective for relieving joint pain when administered in an acute model, such as the instant MIA Rat model, which has a duration of just 14 or 28 days.
Generally, In the MIA Rat model on Day 0, the hind-paw weight differential between the right arthritic joint and the left healthy joint of male Wistar rats (150 g) are determined with an incapacitance tester, model 2KG (Linton Instrumentation, Norfolk, United Kingdom). The incapacitance tester has a chamber on top with an outwardly sloping front wall that supports a rat's front limbs, and two weight sensing pads, one for each hind paw, that facilitates this determination. Then the rats are anesthetized with isofluorine, and the right, hind leg knee joint is injected with 1.0 mg of mono-iodoacetate (“MIA”) through the infrapatellar ligament. Injection of MIA into the joint results in the inhibition of glycolysis and eventual death of surrounding chondrocytes. The rats are further administered either an invention compound or vehicle (in the instant case, water) daily for 14 days or 28 days.
The invention compound is typically administered at a dose of 30 mg of per kilogram of rat per day (30 mg/kg/day), but may be administered at other doses such as, for example, 10 mg/kg/day, 60 mg/kg/day, 90-mg/kg/day, or 100 mg/kg/day according to the requirements of the invention compound being studied. It is well within the level of ordinary skill in the pharmaceutical arts to determine a proper dosage of an invention compound in this model.
Administration of an invention compound in this model is optionally by oral administration or by intravenous administration via an osmotic pump. After 7 and 14 days for a two week study, or 7, 14, and 28 days for a four week study, the hind-paw weight distribution is again determined. Typically, the animals administered vehicle alone place greater weight on their unaffected left hind paw than on their right hind paw, while animals administered an invention compound show a more normal (i.e., more like a healthy animal) weight distribution between their hind paws. This change in weight distribution was proportional to the degree of joint cartilage damage. Percent inhibition of a change in hind paw joint function is calculated as the percent change in hind-paw weight distribution for treated animals versus control animals. For example, for a two week study, [formula] wherein: ΔWC is the hind-paw weight differential between the healthy left limb and the arthritic limb of the control animal administered vehicle alone, as measured on Day 14; and • ΔWG is the hind-paw weight differential between the healthy left limb and the arthritic limb of the animal administered an invention compound as measured on Day 14.
In order to measure biochemical or histopathological end points in the MIA Rat model, some of the animals in the above study may be sacrificed, and the amounts of free proteoglycan in both the osteoarthritic right knee joint and the contralateral left knee joint may be determined by biochemical analysis. The amount of free proteoglycan in the contralateral left knee joint provides a baseline value for the amount of free proteoglycan in a healthy joint. […]

[4] = target: pig alpha-2-delta receptor 2 (A2DR2) (UniProt A0A8W4FF87); assay: [3H]Gabapentin scintillant proximity A2DR2 binding assay (A2DR2 SPA, Biological Method 5); conditions: displacement of [3H]-gabapentin
Experimental: as §1, §2, §3

[5] = target: T1, alpha-2-delta receptor 2 (A2DR2) (Homo sapiens, UniProt Q9NY47); assay: [3H]Gabapentin A2DR2 binding assay (filter, Biological Method 4); conditions: displacement of [3H]-gabapentin
T1 construct: expressed in transfected cells; host or cells: HEK 293 (membrane preparation)
T1 sequence (Q9NY47 19-1150): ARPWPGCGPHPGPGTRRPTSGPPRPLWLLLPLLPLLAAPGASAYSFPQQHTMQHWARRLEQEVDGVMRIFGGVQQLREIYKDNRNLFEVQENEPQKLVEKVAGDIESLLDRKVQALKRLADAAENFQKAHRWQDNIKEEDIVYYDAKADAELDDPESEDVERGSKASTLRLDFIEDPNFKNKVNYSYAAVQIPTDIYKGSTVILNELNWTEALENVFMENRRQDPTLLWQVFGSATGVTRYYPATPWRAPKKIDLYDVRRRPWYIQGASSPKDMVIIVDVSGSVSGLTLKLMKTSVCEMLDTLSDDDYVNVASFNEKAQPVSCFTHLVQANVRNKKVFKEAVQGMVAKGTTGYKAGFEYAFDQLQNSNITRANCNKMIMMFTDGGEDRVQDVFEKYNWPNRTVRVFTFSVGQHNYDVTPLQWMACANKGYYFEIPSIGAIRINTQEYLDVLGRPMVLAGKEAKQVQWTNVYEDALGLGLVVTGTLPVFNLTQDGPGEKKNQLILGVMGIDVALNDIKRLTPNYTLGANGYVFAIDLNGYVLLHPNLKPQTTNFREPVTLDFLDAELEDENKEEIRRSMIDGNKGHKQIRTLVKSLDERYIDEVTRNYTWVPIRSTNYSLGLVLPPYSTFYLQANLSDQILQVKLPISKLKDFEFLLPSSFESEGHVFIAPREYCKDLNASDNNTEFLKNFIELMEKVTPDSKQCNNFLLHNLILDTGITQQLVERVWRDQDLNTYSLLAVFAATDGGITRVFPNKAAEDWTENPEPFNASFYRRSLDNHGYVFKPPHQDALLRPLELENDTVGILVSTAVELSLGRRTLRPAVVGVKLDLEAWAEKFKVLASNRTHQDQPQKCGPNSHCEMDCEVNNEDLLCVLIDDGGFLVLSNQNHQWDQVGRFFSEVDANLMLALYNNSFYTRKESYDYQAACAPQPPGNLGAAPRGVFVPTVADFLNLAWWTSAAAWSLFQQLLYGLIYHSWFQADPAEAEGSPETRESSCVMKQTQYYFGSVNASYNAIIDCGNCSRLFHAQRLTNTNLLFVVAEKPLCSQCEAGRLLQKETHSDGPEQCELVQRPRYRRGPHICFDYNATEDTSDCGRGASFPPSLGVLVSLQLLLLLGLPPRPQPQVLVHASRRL
Source text: HEK 293 recombinant cells expressing A2DR1 or A2DR2 protein are harvested and washed in phosphate buffered saline (“PBS”). The cells are centrifuged and resuspended in tris(hydroxymethyl)aminomethane-ethylenediaminetetraacetic acid (“Tris-EDTA” or “TE”) buffer containing Roche Complete Protease Inhibitor Cocktail. The cells are homogenized, centrifuged at 3000×g, and the supernatant centrifuged again at 50,000×g. The resulting pellet is resuspended and homogenized in TE. Following determination of A2DR1 or A2DR2 protein concentration, aliquots are stored at −70° C. until the day of testing (membrane preparation may be used for at least 6 months).
In one version, the binding assay is set up in a 96-well format using deep-well polypropylene plates. In a total volume of 500 μL, the following additions are made: 250 μL buffer [[…] N-2-hydroxyethylpiperazine-N′-2-ethanesulfonic acid (“HEPES”), pH 7.4], 25 μL [3H]gabapentin (10 nM final concentration), 200 μL thawed tissue membrane preparation from Step (1) (˜40 μg protein), and 25 μL of test compound at 7 test dilutions (for example, 0.001, 0.01, 0.03, 0.1, 0.3, 1.0, and 10 μM concentrations). Non-specific binding for each plate is determined by the addition of 10 μM of pregabalin instead of test compound in a few of the 96 wells. Following incubation for 45 minutes at 21° C., the contents of the wells are filtered under vacuum onto glass filter/B (“GF/B”) filter mats and then washed 4×1 mL with chilled 50 mM tris(hydroxymethyl)aminomethane (“Tris”) HCl, pH 6.9. The mats are placed into plastic pouches, scintillation cocktail is added, the pouches are sealed, and radioactivity for each sample is counted.
Specific binding values for each concentration are transformed and then analyzed by a 4-parameter nonlinear regression equation provided by Prism graphics software by Graph Pad to determine IC50 values by conventional means.

Row | Compound | IC50 [2] [µM] | IC50 [4] [µM] | further results
1 | CN1[C@H](C(=O)O)C[C@@H]2CCCC[C@@H]21.Cl [A1] | – | – | bioavailability ([1]; Wistar, in vivo, po, administered orally, rat (footnote of Table 2), read-out: bioavailability): 63%; half-life ([1]; Wistar, rat, in vivo, po, administered orally, rat (footnote of Table 2), read-out: half-life): 10 h
2 | CN1[C@H](C(=O)O)C[C@@H]2CCCC[C@@H]21.Cl [Example A1] | ≥ 10 | ≥ 10 | bioavailability ([1]; Wistar, in vivo, rat, PO, 30 mg/kg, read-out: Mean Bioavailability): 63%; half-life ([1]; Wistar, rat, in vivo, po, 30 mg/kg, rat plasma, PO, 30 mg/kg, read-out: Mean T1/2 (converted)): 25.3 h; half-life ([1]; Wistar, rat, in vivo, po, 300 mg/kg, rat plasma, PO, 300 mg/kg, read-out: Mean T1/2 (converted)): 11.1 h; % I @ 30 mg/kg BID (%) (± SEM): inhibition of loss of hind limb joint function in MIA at Day 14 ([3]; 2-week MIA study, Day 14, rat): 59 ± 17%
3 | CCN1[C@H](C(=O)O)C[C@@H]2CCCC[C@@H]21 [Example A3] | ≥ 10 | ≥ 10 | –
4 | CCCN1[C@H](C(=O)O)C[C@@H]2CCCC[C@@H]21 [Example A5] | ≥ 10 | ≥ 10 | –
5 | CC(C)CN1[C@H](C(=O)O)C[C@@H]2CCCC[C@@H]21 [Example A6] | ≥ 10 | ≥ 10 | –
6 | COCCN1[C@H](C(=O)O)C[C@@H]2CCCC[C@@H]21 [Example A7] | ≥ 10 | ≥ 10 | –
7 | CS(=O)(=O)NC(=O)[C@@H]1C[C@@H]2CCCC[C@@H]2N1 [Example E1] | ≥ 10 | ≥ 10 | –
8 | O=c1[nH]c([C@@H]2C[C@@H]3CCCC[C@@H]3N2)no1 [Example F1] | – | – | IC50 [5]: ≥ 10 µM; % I @ 30 mg/kg BID (%) (± SEM): inhibition of loss of hind limb joint function in MIA at Day 14 ([3]; 2-week MIA study, Day 14, rat): (i) 82^2; %
9 | CCC1CCC2CC(C(=O)O)NC2C1 (centres unmarked) [Example O1] | 1.3 | 4.5 | –
10 | COC1CCC2CC(C(=O)O)NC2C1 (centres unmarked) [Example O3] | – | – | IC50 [5]: 2.23 µM
11 | CC(C)(C)C1CCC2NC(C(=O)O)CC2C1 (centres unmarked) [Example O8] | ≥ 10 | ≥ 10 | –
12 | O=C(O)C1CC2C(CCCC2C(F)(F)F)N1 (centres unmarked) [Example O10] | ≥ 10 | ≥ 10 | % I @ 10 mg/kg/day (%) (± SEM): inhibition of loss of hind limb joint function in MIA at Day 14 ([3]; 10 mg/kg/day via osmotic pump, 2-week MIA study, Day 14, rat): 0%
13 | O=C(O)[C@]12C[C@H]1[C@@H]1CCCC[C@@H]1N2 [Example Q1] | 2.6 | ≥ 10 | –
14 | CN(C)CC(C)(C)COC(=O)C1C[C@@H]2CCCC[C@@H]2N1 (some centres unmarked) [Example Y1] | 0.29 | 1.4 | –
15 | O=c1[nH]c([C@@H]2C[C@@H]3CCCC[C@@H]3N2)no1 [F1] | – | – | % I (%) (± SEM): inhibition of loss of hind limb joint function in MIA at Day 14 ([3]; via Alzet osmotic pump (footnote 3), Day 14, rat): (ii) 59 ± 9^3%
16 | O=C(O)[C@@H]1C[C@@H]2CCCC[C@@H]2N1 [OHI2CA, (2S,3aS,7aS)-octahydroindole-2-carboxylic acid, reference compound] | 0.11 | 0.6 | half-life ([1]; Sprague-Dawley, rat plasma, IV, 3 mg/kg, read-out: Mean T1/2 (converted)): 4.01 h; bioavailability ([1]; Wistar, plasma, po, administered orally, rat (footnote of Table 2), read-out: bioavailability): 72%; half-life ([1]; Wistar, plasma, po, administered orally, rat (footnote of Table 2), read-out: half-life): 4 h; bioavailability ([1]; Wistar, plasma, rat, PO, 5 mg/kg, read-out: Mean Bioavailability): 72%; half-life ([1]; Wistar, rat plasma, PO, 5 mg/kg, read-out: Mean T1/2 (converted)): 3.78 h
17 | CN1[C@H](C(=O)O)C[C@@H]2CCCC[C@@H]21 [[2(S),3a(S),7a(S)]-1-methyl-2,3,3a,4,5,6,7,7a-octahydroindole-2-carboxylic acid] | – | – | degree of structural damage to the cartilage ([3]; 30 mg/kg and 10 mg/kg doses, PO BID, 4 weeks post-MIA): significantly decreased; cartilage erosion severity ([3]; 30-mg/kg and 10-mg/kg doses, PO BID, MIA rat): significantly decrease; joint function limitations (differential hind-limb weight bearing) ([3]; PO BID, MIA rat): decrease joint function limitations; joint pain ([3]; all doses (3 to 30 mg/kg PO BID), 4 weeks post-MIA): significantly decreased
